Laboratory results: patent US6689773B2, “Uracil substituted phenyl sulfamoyl carboxamides” (BASF Aktiengesellschaft, priority 2000, dated 2004)

Experiments:
Format in all cases: in vivo
[1] = tested on: XANST, Cocklebur, Xanthium strumariam; assay: Postemergence herbicidal evaluation (Example 147); conditions: rating scale 0-9, two to three weeks after treatment
Method in brief: (§1)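 Greenhouse postemergence test: two-week seedlings sprayed at about 0.016 to 0.032 kg/ha active. Scored visually, 0-9 scale, after two to three weeks.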

[2] = tested on: SETVI, Green foxtail, Setaria viridis, (L.)Beau; assay: Postemergence herbicidal evaluation (Example 147); conditions: rating scale 0-9, two to three weeks after treatment
Method in brief: as §1

[3] = tested on: IPOHE, Morningglory, Ivyleaf, Ipomoea hederacea, (L)Jacq.; assay: Postemergence herbicidal evaluation (Example 147); conditions: rating scale 0-9, two to three weeks after treatment
Method in brief: as §1

[4] = tested on: CHEAL, Lambsquarters, Chenopodium album, L. Common; assay: Postemergence herbicidal evaluation (Example 147); conditions: rating scale 0-9, two to three weeks after treatment
Method in brief: as §1

[5] = tested on: AMBEL, Ragweed, Common, Ambrosia artemiisifolia, L.; assay: Postemergence herbicidal evaluation (Example 147); conditions: rating scale 0-9, two to three weeks after treatment
Method in brief: as §1

[6] = tested on: GLXMA, Soybean, Glycine max, (L.) Merr.; assay: Postemergence herbicidal evaluation (Example 147); conditions: rating scale 0-9, two to three weeks after treatment
Method in brief: as §1

[7] = tested on: ZEAMX, Field corn, Zea mays L.; assay: Postemergence herbicidal evaluation (Example 147); conditions: rating scale 0-9, two to three weeks after treatment
Method in brief: as §1

[8] = tested on: ECHCG, Barnyardgrass, Echinochloa crusgalli, (L.)Beau; assay: Postemergence herbicidal evaluation (Example 147); conditions: rating scale 0-9, two to three weeks after treatment
Method in brief: as §1

[9] = tested on: TRZAW, Winter wheat, Tritium Aestivum, L. (Winter); assay: Postemergence herbicidal evaluation (Example 147); conditions: rating scale 0-9, two to three weeks after treatment
Method in brief: as §1

[10] = tested on: DIGSA, Crabgrass, (Hairy) L, Digitaria sanguinalis, (L)Scop; assay: Postemergence herbicidal evaluation (Example 147); conditions: rating scale 0-9, two to three weeks after treatment
Method in brief: as §1

[11] = tested on: ALOMY, Blackgrass, Alopecurus myosuroides; assay: Postemergence herbicidal evaluation (Example 147); conditions: rating scale 0-9, two to three weeks after treatment
Method in brief: as §1

[12] = tested on: ABUTH, Velvetleaf, Abutilon theophrasti, Medic.; assay: Postemergence herbicidal evaluation (Example 147); conditions: rating scale 0-9, two to three weeks after treatment
Method in brief: as §1

[13] = tested on: XANST, Cocklebur, Xanthium strumariam; assay: Preemergence herbicidal evaluation (Example 148); conditions: rating scale 0-9, two to four weeks after treatment
Method in brief: (§2)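 Herbicidal effect is a visual score comparing treated plants with a control for stand, vigor, size, malformation and chlorosis. Treatment was a preemergence spray (~0.125–0.250 kg/ha, aqueous acetone); assessment came 2–4 weeks later.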

[14] = tested on: SETVI, Green foxtail, Setaria viridis, (L.)Beau; assay: Preemergence herbicidal evaluation (Example 148); conditions: rating scale 0-9, two to four weeks after treatment
Method in brief: as §2

[15] = tested on: IPOHE, Morningglory, Ivyleaf, Ipomoea hederacea, (L)Jacq.; assay: Preemergence herbicidal evaluation (Example 148); conditions: rating scale 0-9, two to four weeks after treatment
Method in brief: as §2

[16] = tested on: CHEAL, Lambsquarters, Chenopodium album, L. Common; assay: Preemergence herbicidal evaluation (Example 148); conditions: rating scale 0-9, two to four weeks after treatment
Method in brief: as §2

[17] = tested on: AMBEL, Ragweed, Common, Ambrosia artemiisifolia, L.; assay: Preemergence herbicidal evaluation (Example 148); conditions: rating scale 0-9, two to four weeks after treatment
Method in brief: as §2

[18] = tested on: GLXMA, Soybean, Glycine max, (L.) Merr.; assay: Preemergence herbicidal evaluation (Example 148); conditions: rating scale 0-9, two to four weeks after treatment
Method in brief: as §2

[19] = tested on: ZEAMX, Field corn, Zea mays L.; assay: Preemergence herbicidal evaluation (Example 148); conditions: rating scale 0-9, two to four weeks after treatment
Method in brief: as §2

[20] = tested on: ECHCG, Barnyardgrass, Echinochloa crusgalli, (L.)Beau; assay: Preemergence herbicidal evaluation (Example 148); conditions: rating scale 0-9, two to four weeks after treatment
Method in brief: as §2

[21] = tested on: TRZAW, Winter wheat, Tritium Aestivum, L. (Winter); assay: Preemergence herbicidal evaluation (Example 148); conditions: rating scale 0-9, two to four weeks after treatment
Method in brief: as §2

[22] = tested on: DIGSA, Crabgrass, (Hairy) L, Digitaria sanguinalis, (L)Scop; assay: Preemergence herbicidal evaluation (Example 148); conditions: rating scale 0-9, two to four weeks after treatment
Method in brief: as §2

[23] = tested on: ALOMY, Blackgrass, Alopecurus myosuroides; assay: Preemergence herbicidal evaluation (Example 148); conditions: rating scale 0-9, two to four weeks after treatment
Method in brief: as §2

[24] = tested on: ABUTH, Velvetleaf, Abutilon theophrasti, Medic.; assay: Preemergence herbicidal evaluation (Example 148); conditions: rating scale 0-9, two to four weeks after treatment
Method in brief: as §2

In the case of `CN(Cc1ccccc1)S(=O)(=O)NC(=O)c1cc(-n2c(=O)cc(C(F)(F)F)n(C)c2=O)c(F)cc1Cl` [Example 61], the “Postemergence herbicidal rating XANST” value ([1]; rate 0.016 kg/ha) is reported as 9.0, the “Postemergence herbicidal rating XANST” value ([1]; rate 0.032 kg/ha) is reported as 9.0 and the “Postemergence herbicidal rating SETVI” value ([2]; rate 0.016 kg/ha) is reported as 7.0. For the same molecule, the “Postemergence herbicidal rating SETVI” value ([2]; rate 0.032 kg/ha) was 9.0, the “Postemergence herbicidal rating IPOHE” value ([3]; rate 0.016 kg/ha) was 8.0 and the “Postemergence herbicidal rating IPOHE” value ([3]; rate 0.032 kg/ha) was 9.0. For the same molecule, the “Postemergence herbicidal rating CHEAL” value ([4]; rate 0.016 kg/ha) was 9.0, the “Postemergence herbicidal rating CHEAL” value ([4]; rate 0.032 kg/ha) was 8.0 and the “Postemergence herbicidal rating AMBEL” value ([5]; rate 0.016 kg/ha) was 9.0. The “Postemergence herbicidal rating AMBEL” value ([5]; rate 0.032 kg/ha) was 9.0, the “Postemergence herbicidal rating GLXMA” value ([6]; rate 0.016 kg/ha) was 8.5 and the “Postemergence herbicidal rating GLXMA” value ([6]; rate 0.032 kg/ha) was 8.5. For the same molecule, the “Postemergence herbicidal rating ZEAMX” value ([7]; rate 0.016 kg/ha) was 7.5, the “Postemergence herbicidal rating ZEAMX” value ([7]; rate 0.032 kg/ha) was 7.5 and the “Postemergence herbicidal rating ECHCG” value ([8]; rate 0.016 kg/ha) was 7.0. The “Postemergence herbicidal rating ECHCG” value ([8]; rate 0.032 kg/ha) was 8.0, the “Postemergence herbicidal rating TRZAW” value ([9]; rate 0.016 kg/ha) was 6.0 and the “Postemergence herbicidal rating TRZAW” value ([9]; rate 0.032 kg/ha) was 6.5. The “Postemergence herbicidal rating DIGSA” value ([10]; rate 0.016 kg/ha) was 7.0, the “Postemergence herbicidal rating DIGSA” value ([10]; rate 0.032 kg/ha) was 6.0 and the “Postemergence herbicidal rating ALMOY” value ([11]; rate 0.016 kg/ha) was 1.0. The “Postemergence herbicidal rating ALMOY” value ([11]; rate 0.032 kg/ha) was 1.0, the “Postemergence herbicidal rating ABUTH” value ([12]; rate 0.016 kg/ha) was 9.0 and the “Postemergence herbicidal rating ABUTH” value ([12]; rate 0.032 kg/ha) was 9.0. The “Preemergence herbicidal rating XANST” value ([13]; rate 0.125 kg/ha) was 9.0, the “Preemergence herbicidal rating XANST” value ([13]; rate 0.25 kg/ha) was 9.0 and the “Preemergence herbicidal rating SETVI” value ([14]; rate 0.125 kg/ha) was 3.0. The “Preemergence herbicidal rating SETVI” value ([14]; rate 0.25 kg/ha) was 6.0, the “Preemergence herbicidal rating IPOHE” value ([15]; rate 0.125 kg/ha) was 9.0 and the “Preemergence herbicidal rating IPOHE” value ([15]; rate 0.25 kg/ha) was 9.0. The “Preemergence herbicidal rating CHEAL” value ([16]; rate 0.125 kg/ha) was 9.0, the “Preemergence herbicidal rating CHEAL” value ([16]; rate 0.25 kg/ha) was 9.0 and the “Preemergence herbicidal rating AMBEL” value ([17]; rate 0.125 kg/ha) was 9.0. For the same molecule, the “Preemergence herbicidal rating AMBEL” value ([17]; rate 0.25 kg/ha) was 9.0, the “Preemergence herbicidal rating GLXMA” value ([18]; rate 0.125 kg/ha) was 9.0 and the “Preemergence herbicidal rating GLXMA” value ([18]; rate 0.25 kg/ha) was 9.0. For the same molecule, the “Preemergence herbicidal rating ZEAMX” value ([19]; rate 0.125 kg/ha) was 2.0, the “Preemergence herbicidal rating ZEAMX” value ([19]; rate 0.25 kg/ha) was 2.0 and the “Preemergence herbicidal rating ECHCG” value ([20]; rate 0.125 kg/ha) was 4.0. The “Preemergence herbicidal rating ECHCG” value ([20]; rate 0.25 kg/ha) was 7.0, the “Preemergence herbicidal rating TRZAW” value ([21]; rate 0.125 kg/ha) was 2.0 and the “Preemergence herbicidal rating TRZAW” value ([21]; rate 0.25 kg/ha) was 3.0. The “Preemergence herbicidal rating DIGSA” value ([22]; rate 0.125 kg/ha) was 6.0, the “Preemergence herbicidal rating DIGSA” value ([22]; rate 0.25 kg/ha) was 9.0 and the “Preemergence herbicidal rating ALMOY” value ([23]; rate 0.125 kg/ha) was 0.0. For the same molecule, the “Preemergence herbicidal rating ALMOY” value ([23]; rate 0.25 kg/ha) was 0.0, the “Preemergence herbicidal rating ABUTH” value ([24]; rate 0.125 kg/ha) was 9.0 and the “Preemergence herbicidal rating ABUTH” value ([24]; rate 0.25 kg/ha) was 9.0.

For `CCCN(CC)S(=O)(=O)NC(=O)c1cc(-n2c(=O)cc(C(F)(F)F)n(C)c2=O)c(F)cc1Cl` [Example 62], the “Postemergence herbicidal rating XANST” value ([1]; rate 0.016 kg/ha) was 9.0, the “Postemergence herbicidal rating XANST” value ([1]; rate 0.032 kg/ha) was 9.0 and the “Postemergence herbicidal rating SETVI” value ([2]; rate 0.016 kg/ha) was 6.0. For the same molecule, the “Postemergence herbicidal rating SETVI” value ([2]; rate 0.032 kg/ha) was 6.0, the “Postemergence herbicidal rating IPOHE” value ([3]; rate 0.016 kg/ha) was 9.0 and the “Postemergence herbicidal rating IPOHE” value ([3]; rate 0.032 kg/ha) was 9.0. The “Postemergence herbicidal rating CHEAL” value ([4]; rate 0.016 kg/ha) was 7.0, the “Postemergence herbicidal rating CHEAL” value ([4]; rate 0.032 kg/ha) was 8.0 and the “Postemergence herbicidal rating AMBEL” value ([5]; rate 0.016 kg/ha) was 9.0. The “Postemergence herbicidal rating AMBEL” value ([5]; rate 0.032 kg/ha) was 9.0, the “Postemergence herbicidal rating GLXMA” value ([6]; rate 0.016 kg/ha) was 8.0 and the “Postemergence herbicidal rating GLXMA” value ([6]; rate 0.032 kg/ha) was 8.0. The “Postemergence herbicidal rating ZEAMX” value ([7]; rate 0.016 kg/ha) was 6.5, the “Postemergence herbicidal rating ZEAMX” value ([7]; rate 0.032 kg/ha) was 6.5 and the “Postemergence herbicidal rating ECHCG” value ([8]; rate 0.016 kg/ha) was 6.0. The “Postemergence herbicidal rating ECHCG” value ([8]; rate 0.032 kg/ha) was 7.0, the “Postemergence herbicidal rating TRZAW” value ([9]; rate 0.016 kg/ha) was 5.5 and the “Postemergence herbicidal rating TRZAW” value ([9]; rate 0.032 kg/ha) was 6.5. For the same molecule, the “Postemergence herbicidal rating DIGSA” value ([10]; rate 0.016 kg/ha) was 5.0, the “Postemergence herbicidal rating DIGSA” value ([10]; rate 0.032 kg/ha) was 5.0 and the “Postemergence herbicidal rating ALMOY” value ([11]; rate 0.016 kg/ha) was 2.0. For the same molecule, the “Postemergence herbicidal rating ALMOY” value ([11]; rate 0.032 kg/ha) was 2.0, the “Postemergence herbicidal rating ABUTH” value ([12]; rate 0.016 kg/ha) was 9.0 and the “Postemergence herbicidal rating ABUTH” value ([12]; rate 0.032 kg/ha) was 9.0. The “Preemergence herbicidal rating XANST” value ([13]; rate 0.125 kg/ha) was 9.0, the “Preemergence herbicidal rating XANST” value ([13]; rate 0.25 kg/ha) was 9.0 and the “Preemergence herbicidal rating SETVI” value ([14]; rate 0.125 kg/ha) was 3.0. The “Preemergence herbicidal rating SETVI” value ([14]; rate 0.25 kg/ha) was 7.0, the “Preemergence herbicidal rating IPOHE” value ([15]; rate 0.125 kg/ha) was 9.0 and the “Preemergence herbicidal rating IPOHE” value ([15]; rate 0.25 kg/ha) was 9.0. For the same molecule, the “Preemergence herbicidal rating CHEAL” value ([16]; rate 0.125 kg/ha) was 9.0, the “Preemergence herbicidal rating CHEAL” value ([16]; rate 0.25 kg/ha) was 9.0 and the “Preemergence herbicidal rating AMBEL” value ([17]; rate 0.125 kg/ha) was 9.0. For the same molecule, the “Preemergence herbicidal rating AMBEL” value ([17]; rate 0.25 kg/ha) was 9.0, the “Preemergence herbicidal rating GLXMA” value ([18]; rate 0.125 kg/ha) was 5.0 and the “Preemergence herbicidal rating GLXMA” value ([18]; rate 0.25 kg/ha) was 9.0. The “Preemergence herbicidal rating ZEAMX” value ([19]; rate 0.125 kg/ha) was 1.0, the “Preemergence herbicidal rating ZEAMX” value ([19]; rate 0.25 kg/ha) was 1.0 and the “Preemergence herbicidal rating ECHCG” value ([20]; rate 0.125 kg/ha) was 3.0. For the same molecule, the “Preemergence herbicidal rating ECHCG” value ([20]; rate 0.25 kg/ha) was 6.0, the “Preemergence herbicidal rating TRZAW” value ([21]; rate 0.125 kg/ha) was 3.0 and the “Preemergence herbicidal rating TRZAW” value ([21]; rate 0.25 kg/ha) was 5.0. The “Preemergence herbicidal rating DIGSA” value ([22]; rate 0.125 kg/ha) was 5.0, the “Preemergence herbicidal rating DIGSA” value ([22]; rate 0.25 kg/ha) was 7.0 and the “Preemergence herbicidal rating ALMOY” value ([23]; rate 0.125 kg/ha) was 0.0. For the same molecule, the “Preemergence herbicidal rating ALMOY” value ([23]; rate 0.25 kg/ha) was 0.0, the “Preemergence herbicidal rating ABUTH” value ([24]; rate 0.125 kg/ha) was 9.0 and the “Preemergence herbicidal rating ABUTH” value ([24]; rate 0.25 kg/ha) was 9.0.
